{
  "source": "paper PMC5047057",
  "about": "(Oral oncology, 2016)",
  "key": {"[1]": {"system": "patients with Rb-positive cancers", "settings": "cited from earlier work"}, "Rb-positive cell lines": {"system": "Rb-positive cell lines", "settings": "cited from earlier work"}, "[2]": {"system": "Rb-negative tumor xenografts", "settings": "cited from earlier work"}, "clinical": {"assay": "clinical", "design": "species or system human", "settings": "in vivo; for Tmax / AUC(0-t) / Cmax: human, po; for AUC(0-t): AUC0-24h"}, "[3]": {"system": "patients with recurrent/metastatic head and neck squamous cell carcinoma (HNSCC)"}, "[4]": {"settings": "Palbociclib 125 mg (n=6 pts) with weekly cetuximab, all cycles"}},
  "data": [
    {"compound": "CC(=O)c1c(C)c2cnc(Nc3ccc(N4CCNCC4)cn3)nc2n(C2CCCC2)c1=O", "note": "[palbociclib]", "values": [
      {"measurement": "Systemic exposure versus dose", "setting": "[1]; dose range of 25-150 mg", "value": "dose proportionality"},
      {"measurement": "Maximum tolerated dose (MTD)", "setting": "[1]; once daily, administered for 21 days of each 28 day cycle, monotherapy", "value": 125, "unit": "mg"},
      {"measurement": "Dose-limiting toxicity (DLT)", "setting": "[1]; palbociclib monotherapy phase I trials", "value": "neutropenia"},
      {"measurement": "Anti-proliferative effects", "setting": "Rb-positive cell lines", "value": "potent anti-proliferative effects"},
      {"measurement": "Activity in xenografts", "setting": "[2]", "value": "no activity"},
      {"measurement": "Tmax", "setting": "clinical; 100 mg", "value": 8, "unit": "h"},
      {"measurement": "AUC(0-t)", "setting": "clinical; 100 mg", "value": 1480, "unit": "ng·h/mL"},
      {"measurement": "Cmax", "setting": "clinical; 100 mg", "value": 70, "unit": "ng/mL"},
      {"measurement": "Tmax", "setting": "clinical; 100 mg, Tmax", "value": 8, "unit": "h"},
      {"measurement": "AUC(0-t)", "setting": "clinical; 125 mg", "value": 2230, "unit": "ng·h/mL"},
      {"measurement": "Cmax", "setting": "clinical; 125 mg", "value": 145, "unit": "ng/mL"},
      {"measurement": "Tmax", "setting": "clinical; 125 mg, Tmax", "value": 8, "unit": "h"},
      {"measurement": "Dose-normalized Cmax and AUC0-24h, 100 vs 125 mg daily oral doses", "setting": "clinical", "value": "comparable"},
      {"measurement": "Acneiform Rash, Grade 3 (number of patients)", "setting": "[3]; [4]", "value": 0},
      {"measurement": "Acneiform Rash, Grades 1-2 (number of patients)", "setting": "[3]; [4]", "value": 5},
      {"measurement": "Anemia, Grade 3 (number of patients)", "setting": "[3]; [4]", "value": 0},
      {"measurement": "Anemia, Grades 1-2 (number of patients)", "setting": "[3]; [4]", "value": 6},
      {"measurement": "Diarrhea, Grade 3 (number of patients)", "setting": "[3]; [4]", "value": 0},
      {"measurement": "Diarrhea, Grades 1-2 (number of patients)", "setting": "[3]; [4]", "value": 1},
      {"measurement": "Fatigue, Grade 3 (number of patients)", "setting": "[3]; [4]", "value": 0},
      {"measurement": "Fatigue, Grades 1-2 (number of patients)", "setting": "[3]; [4]", "value": 3},
      {"measurement": "Hypomagnesemia, Grade 3 (number of patients)", "setting": "[3]; [4]", "value": 0},
      {"measurement": "Hypomagnesemia, Grades 1-2 (number of patients)", "setting": "[3]; [4]", "value": 2},
      {"measurement": "Infusion Reaction, Grade 3 (number of patients)", "setting": "[3]; [4]", "value": 0},
      {"measurement": "Infusion Reaction, Grades 1-2 (number of patients)", "setting": "[3]; [4]", "value": 1},
      {"measurement": "Nausea, Grade 3 (number of patients)", "setting": "[3]; [4]", "value": 0},
      {"measurement": "Nausea, Grades 1-2 (number of patients)", "setting": "[3]; [4]", "value": 2},
      {"measurement": "Neutropenia, Grade 3 (number of patients)", "setting": "[3]; [4]", "value": 2},
      {"measurement": "Neutropenia, Grades 1-2 (number of patients)", "setting": "[3]; [4]", "value": 2},
      {"measurement": "Thrombocytopenia, Grade 3 (number of patients)", "setting": "[3]; [4]", "value": 0},
      {"measurement": "Thrombocytopenia, Grades 1-2 (number of patients)", "setting": "[3]; [4]", "value": 3},
      {"measurement": "Vomiting, Grade 3 (number of patients)", "setting": "[3]; [4]", "value": 0},
      {"measurement": "Vomiting, Grades 1-2 (number of patients)", "setting": "[3]; [4]", "value": 1},
      {"measurement": "Palbociclib dose recommended for phase II trials", "setting": "[3]; days 1-21 of a 28 day cycle with standard doses of weekly cetuximab", "value": 125, "unit": "mg/day"},
      {"measurement": "Intra-patient dose reductions", "setting": "[3]; in vivo", "value": "did not occur"},
      {"measurement": "Most common AE", "setting": "[3]; in vivo", "value": "Myelosuppression"},
      {"measurement": "Maximum tolerated dose (MTD)", "setting": "[3]; palbociclib up to 125 mg/day days 1-21 of 28 with standard weekly cetuximab", "value": "not reached"}
    ]}
  ]
}
